For 2 compounds, IC50 results are on record in ChEMBL document CHEMBL5321225, “DeepCancerMap: A versatile deep learning platform for target- and cell-based anticancer drug discovery” (Eur J Med Chem, 2023).

For one assay, the system named is CNE-2. Nature of the assay: Antiproliferative activity against human CNE-2 cells assessed as reduction in cell viability. Type of assay: functional, cell-based.
For the next assay, the system named is A549. Briefly: Antiproliferative activity against human A549 cells assessed as reduction in cell viability. Format: functional, cell-based.

The IC50 is the concentration that gives 50% inhibition. For `CCCCCCC(=O)Nc1ncc(Cc2ccc(OC)cc2)s1`, the values for the IC50 in the assay with CNE-2 and in the assay on A549 were 2030 nM and more than 50000 nM, respectively.

For `Cc1ccc(C(=O)Nc2ncc(Cc3cccc(Cl)c3)s2)cc1`, the IC50 in the assay with CNE-2 is 2990 nM; in the assay on A549, more than 50000 nM.
